According to patent publication US11918013B2, “Composition for inactivation of gram-positive bacteria and bacterial spores and methods of making and using same” (RESORCIX LTD., priority 2018, dated 2024):
In brackets after ≈: the same amount, converted by molar mass. Like-named read-outs stand apart in the source and are kept apart here.

Test system: Alicyclobacillus acidoterrestris (JCM catalogue number 21547, IAM Culture Collection no. 15086)
Assay: MIC against Alicyclobacillus acidoterrestris in apple juice (OD600 and CFU counting)
Assay type: cell-based
Conditions: 37° C.; for MIC: Alicyclobacillus acidoterrestris, 100% apple juice
Description: The fractions collected in Example 4, as well as Fraction 1 and nisin, a preservative presently in common use in the industry, were tested for activity by incubating for the times indicated in the table below with Alicyclobacillus acidoterrestris (JCM catalogue number 21547, IAM Culture Collection no. 15086) in apple juice. The minimum inhibitory concentration (MIC) was determined by optical density measurements at 600 nm, and by counting colony forming units (CFU) as follows: after four days of incubation at 37° C., juice samples were serially diluted in 10-fold increments (10-fold, 100-fold, 1000-fold, etc.) and plated on Potato Dextrose Agar (PDA). Plates were incubated at 45° C. for at least 48 hours, and colonies were counted to determine CFU/ml.

[1] = 48 h, 2 days of incubation, read-out: MIC (μg/ml) in 100% apple juice 2 days of incubation
[2] = 72 h, 3 days of incubation, read-out: MIC (μg/ml) in 100% apple juice 3 days of incubation
[3] = 120 h, 5 days of incubation, read-out: MIC (μg/ml) in 100% apple juice 5 days of incubation
[4] = 168 h, 7 days of incubation, read-out: MIC (μg/ml) in 100% apple juice 7 days of incubation

| Compound | MIC [1] | MIC [2] | MIC [3] | MIC [4] | MIC (μg/ml) in 100% apple juice 2 days of incubation (2 days of incubation) | MIC (μg/ml) in 100% apple juice 3 days of incubation (3 days of incubation) | MIC (μg/ml) in 100% apple juice 5 days of incubation (5 days of incubation) | MIC (μg/ml) in 100% apple juice 7 days of incubation (7 days of incubation) |
| --- | --- | --- | --- | --- | --- | --- | --- | --- |
| C=C1CC[C@@H]2C(C)(C)CCC[C@@]2(C)[C@@H]1CC/C(C)=C/C(=O)O (single isomer, unassigned) [Sample 7, copalic acid] | 1.25 µg/mL (≈ 4.11 µM) | 1.25 µg/mL (≈ 4.11 µM) | 1.25 µg/mL (≈ 4.11 µM) | 1.25 µg/mL (≈ 4.11 µM) |  |  |  |  |
| CC1=CCC[C@@H]2[C@@](C)(CC/C(C)=C/C(=O)O)[C@H](C)CC[C@@]12C (single isomer, unassigned) [Sample 6, Kolavenic acid] | 1.25 µg/mL (≈ 4.11 µM) | 1.25 µg/mL (≈ 4.11 µM) | 1.25 µg/mL (≈ 4.11 µM) | 1.25 µg/mL (≈ 4.11 µM) |  |  |  |  |
| CC(=O)OC1CC2(C)C(C(=O)O)=CCCC2C(C)(CCc2ccoc2)C1C (stereo not drawn) [Sample 3, 7-α-acetoxyhardwickiic acid] |  |  |  |  | 2.5 µg/mL | 5 µg/mL | 5 µg/mL | 5 µg/mL |
